# The source made the active and inactive calls. The rule behind the calls is not given here.
# How the values were obtained:
# Cricetulus griseus [1] = species: Cricetulus griseus; experiment: Selectivity ratio of PARP inhibition in chinese hamster VC8 cells harboring wild type BRCA2 to PARP inhibition in chinese hamster VC8 cells harboring BRCA2 mutant; assay type: cell-based
# Cricetulus griseus [2] = species: Cricetulus griseus; experiment: Inhibition of PARP in chinese hamster VC8 cells harboring BRCA2 mutant assessed as growth inhibition; assay type: cell-based
# Cricetulus griseus [3] = species: Cricetulus griseus; experiment: Induction of DNA damage in chinese hamster VC8 cells harboring BRCA2 mutant by comet assay; assay type: cell-based
# [4] = Drug uptake in nucleus of chinese hamster VC8 cells harboring wild type BRCA2 at 25 uM by DAPI staining based fluorescence microscopic method; assay type: ADME, Cricetulus griseus
# [5] = Drug uptake in nucleus of chinese hamster VC8 cells harboring BRCA2 mutant at 25 uM by DAPI staining based fluorescence microscopic method; assay type: ADME, Cricetulus griseus
# Cricetulus griseus [6] = species: Cricetulus griseus; experiment: (§1) Inhibition of PARP in chinese hamster VC8 cells harboring BRCA2 mutant; assay type: cell-based
# [7] = as §1; assay type: cell-based, Cricetulus griseus
# [8] = Inhibition of PARP (unknown origin); design: species or system Homo sapiens
# [9] = Inhibition of PARP in Wistar rat pancreatic islet nuclear fraction using histone H1 as substrate in presence of [14C]NAD after 10 mins by scintillation counting method
SMILES,Selectivity ratio (Cricetulus griseus [1]),inhibition (Cricetulus griseus [2]),further results
CN(CO)/N=N/c1cccc2c(=O)[nH]ccc12,2 to 7,inactive,
O=C1NC(=O)c2ccc([N+]3=NN(CCCl)CC3)c3cccc1c23.[Cl-],25,,Activity (Cricetulus griseus [3]): Active; Drug uptake [4]: Not Active; Drug uptake [5]: Not Active; inhibition (Cricetulus griseus [6]): Dose-dependent effect; IC50 [7]: 1 to 1.7 µM
O=C1NC(=O)c2ccc(/N=N/N(CCCl)CCCl)c3cccc1c23,,inactive,
Cc1nc2ccccc2c(=O)[nH]1,,,IC50 [8]: 5 to 120 µM
CN/N=N/c1cccc2c(=O)[nH]ccc12,2 to 7,inactive,
CN(CO)/N=N/c1ccc2c3c(cccc13)C(=O)NC2=O,2 to 7,inactive,
CN(C)/N=N/c1cccc2c(=O)[nH]ccc12,2 to 7,inactive,
Nc1ccc2c3c(cccc13)C(=O)NC2=O,77,,IC50 [7]: 2.59 µM
CN(C)/N=N/c1ccc2c3c(cccc13)C(=O)NC2=O,2 to 7,inactive,
CN/N=N/c1ccc2c3c(cccc13)C(=O)NC2=O,2 to 7,inactive,
NC(=O)c1cccc(N)c1 [3-AMINOBENZAMIDE],,,IC50 [9]: 5 to 120 µM
Nc1cccc2c(=O)[nH]ccc12,,inactive,
ClCCN1CC[N+](c2ccc3ncnc(Nc4cccc(Cl)c4)c3c2)=N1,,,Activity (Cricetulus griseus [3]): Active; IC50 [7]: 15.2 µM
O=c1[nH]ccc2c([N+]3=NN(CCCl)CC3)cccc12,,,IC50 [7]: 23.9 µM
